Test results as given in patent US20220071996A1, “ORAL FORMULATIONS OF BRANAPLAM” (NOVARTIS AG, priority 2018, published 2022).
Values after ≈ are worked out from the molar mass of the structure shown. Read-outs that look alike come from different tables or passages of the source.

Experiment: solubility of branaplam in selected excipients
Format: physicochemical
Settings: pH 4, aqueous with cosolvent or surfactant or cyclodextrin, thermodynamic from solid
Protocol: Solubility of branaplam was evaluated in excipients, other than cyclodextrin, such as Cremophor RH40, Tween 80, PG, PEG300, and glycerol. These excipients and concentrations were selected as they are suitable for paediatric formulations. None of the tested excipients was able to support development of a formulation comprising branaplam at a concentration high enough (i.e. about 2 mg/ml or higher) to keep the dose volume in a suitable range (Table 6).
Solubility of branaplam was evaluated in excipients, other than cyclodextrin, such as Cremophor RH40, Tween 80, PG, PEG300, and glycerol. These excipients and concentrations were selected as they are suitable for paediatric formulations. None of the tested excipients was able to support development of a formulation comprising branaplam at a concentration high enough (i.e. about 2 mg/ml or higher) to keep the dose volume in a suitable range (Table 5a).
Solubility of branaplam was measured as follows: stock solutions for the excipients at target concentrations were prepared using milli-Q water and adjusted using pH 4.0 buffer. […] Suspensions were stirred for 24 hours (using a magnetic stirrer) ensuring sufficient swirling and monitoring the temperature. The suspensions were filtered through 0.45 μm nominal pore size filter (e.g. using a PES syringe), and the concentration of branaplam in the filtrate was measured using HPLC (high performance liquid chromatography). The measurements were performed in duplicate and average of the values are reported.

CC1(C)CC(Oc2ccc(-c3ccc(-c4cn[nH]c4)cc3O)nn2)CC(C)(C)N1 [branaplam, 5-(1H-pyrazol-4-yl)-2-(6-((2,2,6,6-tetramethylpiperidin-4-yl)oxy)pyridazin-3-yl)phenol]
solubility at 24 h (aqueous excipient stock solution, 2 °C, in Cremophor RH 40 7.0% (w/w), 2-8° C., read-out: Solubility (mg/mL) 2-8° C.): 0.71 mg/mL (≈ 1800 µM)
solubility at 24 h (aqueous excipient stock solution, 2 °C, in Cremophor RH 40 15.0% (w/w), 2-8° C., read-out: Solubility (mg/mL) 2-8° C.): 1.19 mg/mL (≈ 3020 µM)
solubility at 24 h (aqueous excipient stock solution, 2 °C, in Glycerol 5.0% (w/v), pH 4.0 buffer, 2-8° C., read-out: Solubility (mg/mL) 2-8° C.): 0.2 mg/mL (≈ 508 µM)
solubility at 24 h (aqueous excipient stock solution, 2 °C, in Glycerol 10.0% (w/v), pH 4.0 buffer, 2-8° C., read-out: Solubility (mg/mL) 2-8° C.): 0.19 mg/mL (≈ 483 µM)
solubility at 24 h (aqueous excipient stock solution, 2 °C, in Glycerol 25.0% (w/w), 2-8° C., read-out: Solubility (mg/mL) 2-8° C.): 0.37 mg/mL (≈ 940 µM)
solubility at 24 h (aqueous excipient stock solution, 2 °C, in PEG 300 5.0% (w/v), pH 4.0 buffer, 2-8° C., read-out: Solubility (mg/mL) 2-8° C.): 0.27 mg/mL (≈ 686 µM)
solubility at 24 h (aqueous excipient stock solution, 2 °C, in PEG 300 10.0% (w/v), pH 4.0 buffer, 2-8° C., read-out: Solubility (mg/mL) 2-8° C.): 0.34 mg/mL (≈ 864 µM)
solubility at 24 h (aqueous excipient stock solution, 2 °C, in PEG 300 25.0% (w/v), pH 4.0 buffer, 2-8° C., read-out: Solubility (mg/mL) 2-8° C.): 0.87 mg/mL (≈ 2210 µM)
solubility at 24 h (aqueous excipient stock solution, 2 °C, in PEG 400 5.0% (w/v), pH 4.0 buffer, 2-8° C., read-out: Solubility (mg/mL) 2-8° C.): 0.21 mg/mL (≈ 534 µM)
solubility at 24 h (aqueous excipient stock solution, 2 °C, in PEG 400 10.0% (w/v), pH 4.0 buffer, 2-8° C., read-out: Solubility (mg/mL) 2-8° C.): 0.45 mg/mL (≈ 1140 µM)
solubility at 24 h (aqueous excipient stock solution, 2 °C, in PEG 400 25.0% (w/v), pH 4.0 buffer, 2-8° C., read-out: Solubility (mg/mL) 2-8° C.): 0.93 mg/mL (≈ 2360 µM)
solubility at 24 h (aqueous excipient stock solution, 2 °C, in Propylene glycol 5.0% (w/v), pH 4.0 buffer, 2-8° C., read-out: Solubility (mg/mL) 2-8° C.): 0.16 mg/mL (≈ 407 µM)
solubility at 24 h (aqueous excipient stock solution, 2 °C, in Propylene glycol 10.0% (w/v), pH 4.0 buffer, 2-8° C., read-out: Solubility (mg/mL) 2-8° C.): 0.18 mg/mL (≈ 457 µM)
solubility at 24 h (aqueous excipient stock solution, 2 °C, in Propylene glycol 25.0% (w/v), pH 4.0 buffer, 2-8° C., read-out: Solubility (mg/mL) 2-8° C.): 0.42 mg/mL (≈ 1070 µM)
solubility at 24 h (aqueous excipient stock solution, 2 °C, in Tween 80 0.5% (w/v), pH 4.0 buffer, 2-8° C., read-out: Solubility (mg/mL) 2-8° C.): 0.16 mg/mL (≈ 407 µM)
solubility at 24 h (aqueous excipient stock solution, 2 °C, in Tween 80 0.8% (w/v), pH 4.0 buffer, 2-8° C., read-out: Solubility (mg/mL) 2-8° C.): 0.22 mg/mL (≈ 559 µM)
solubility at 24 h (aqueous excipient stock solution, 2 °C, in Tween 80 1.5% (w/v), pH 4.0 buffer, 2-8° C., read-out: Solubility (mg/mL) 2-8° C.): 0.29 mg/mL (≈ 737 µM)
solubility at 24 h (aqueous excipient stock solution, 2 °C, in Tween 80 5.0% (w/v), pH 4.0 buffer, 2-8° C., read-out: Solubility (mg/mL) 2-8° C.): 0.73 mg/mL (≈ 1860 µM)
solubility at 24 h (aqueous excipient stock solution, 25 °C, in Cremophor RH 40 1.0% (w/w), RT, read-out: Solubility (mg/mL) RT): 0.28 mg/mL (≈ 712 µM)
solubility at 24 h (aqueous excipient stock solution, 25 °C, in Cremophor RH 40 3.5% (w/w), RT, read-out: Solubility (mg/mL) RT): 0.53 mg/mL (≈ 1350 µM)
solubility at 24 h (aqueous excipient stock solution, 25 °C, in Cremophor RH 40 7.0% (w/w), RT, read-out: Solubility (mg/mL) RT): 0.84 mg/mL (≈ 2130 µM)
solubility at 24 h (aqueous excipient stock solution, 25 °C, in Cremophor RH 40 15.0% (w/w), RT, read-out: Solubility (mg/mL) RT): 1.32 mg/mL (≈ 3350 µM)
solubility at 24 h (aqueous excipient stock solution, 25 °C, in Glycerol 5.0% (w/v), pH 4.0 buffer, RT, read-out: Solubility (mg/mL) RT): 0.18 mg/mL (≈ 457 µM)
solubility at 24 h (aqueous excipient stock solution, 25 °C, in Glycerol 10.0% (w/v), pH 4.0 buffer, RT, read-out: Solubility (mg/mL) RT): 0.22 mg/mL (≈ 559 µM)
solubility at 24 h (aqueous excipient stock solution, 25 °C, in Glycerol 25.0% (w/w), RT, read-out: Solubility (mg/mL) RT): 0.38 mg/mL (≈ 966 µM)
solubility at 24 h (aqueous excipient stock solution, 25 °C, in PEG 300 5.0% (w/v), pH 4.0 buffer, RT, read-out: Solubility (mg/mL) RT): 0.39 mg/mL (≈ 991 µM)
solubility at 24 h (aqueous excipient stock solution, 25 °C, in PEG 300 10.0% (w/v), pH 4.0 buffer, RT, read-out: Solubility (mg/mL) RT): 0.64 mg/mL (≈ 1630 µM)
solubility at 24 h (aqueous excipient stock solution, 25 °C, in PEG 300 25.0% (w/v), pH 4.0 buffer, RT, read-out: Solubility (mg/mL) RT): 1.61 mg/mL (≈ 4090 µM)
solubility at 24 h (aqueous excipient stock solution, 25 °C, in PEG 400 5.0% (w/v), pH 4.0 buffer, RT, read-out: Solubility (mg/mL) RT): 0.39 mg/mL (≈ 991 µM)
solubility at 24 h (aqueous excipient stock solution, 25 °C, in PEG 400 10.0% (w/v), pH 4.0 buffer, RT, read-out: Solubility (mg/mL) RT): 0.63 mg/mL (≈ 1600 µM)
solubility at 24 h (aqueous excipient stock solution, 25 °C, in PEG 400 25.0% (w/v), pH 4.0 buffer, RT, read-out: Solubility (mg/mL) RT): 1.47 mg/mL (≈ 3740 µM)
solubility at 24 h (aqueous excipient stock solution, 25 °C, in Propylene glycol 5.0% (w/v), pH 4.0 buffer, RT, read-out: Solubility (mg/mL) RT): 0.27 mg/mL (≈ 686 µM)
solubility at 24 h (aqueous excipient stock solution, 25 °C, in Propylene glycol 10.0% (w/v), pH 4.0 buffer, RT, read-out: Solubility (mg/mL) RT): 0.37 mg/mL (≈ 940 µM)
solubility at 24 h (aqueous excipient stock solution, 25 °C, in Propylene glycol 25.0% (w/v), pH 4.0 buffer, RT, read-out: Solubility (mg/mL) RT): 0.94 mg/mL (≈ 2390 µM)
solubility at 24 h (aqueous excipient stock solution, 25 °C, in Tween 80 0.5% (w/v), pH 4.0 buffer, RT, read-out: Solubility (mg/mL) RT): 0.25 mg/mL (≈ 635 µM)
solubility at 24 h (aqueous excipient stock solution, 25 °C, in Tween 80 0.8% (w/v), pH 4.0 buffer, RT, read-out: Solubility (mg/mL) RT): 0.28 mg/mL (≈ 712 µM)
solubility at 24 h (aqueous excipient stock solution, 25 °C, in Tween 80 1.5% (w/v), pH 4.0 buffer, RT, read-out: Solubility (mg/mL) RT): 0.41 mg/mL (≈ 1040 µM)
solubility at 24 h (aqueous excipient stock solution, 25 °C, in Tween 80 5.0% (w/v), pH 4.0 buffer, RT, read-out: Solubility (mg/mL) RT): 0.89 mg/mL (≈ 2260 µM)
solubility at 24 h (glycerol 25.0% (w/v) aqueous solution in pH 4.0 buffer, 2 °C, in Glycerol 25.0% (w/v), pH 4.0 buffer, 2-8° C., read-out: Solubility (mg/mL) 2-8° C.): 0.37 mg/mL (≈ 940 µM)
solubility at 24 h (glycerol 25.0% (w/v) aqueous solution in pH 4.0 buffer, 25 °C, in Glycerol 25.0% (w/v), pH 4.0 buffer, RT, read-out: Solubility (mg/mL) RT): 0.38 mg/mL (≈ 966 µM)
